Experimental findings from patent US20260216109A1, “TREATMENT OF SKIN DISORDERS WITH SHORT CHAIN FATTY ACIDS” (Temple University-Of The Commonwealth System of Higher …, priority 2023, published 2026) are described below.

The subject of one series is K16. The series is described as follows: Anti-K16 immunostaining of InflammaSkin models. The following applies: Example 1; Day 7; Day 1-6: 1 μM Otezla or SCFA (45 μg/mL Ca-propionate + 1 mM Ca-/Mg-butyrate) systemic, 0.05% Betamethasone topical. Type of series: cell-based, human. How it is done: (§1) A total of 16 biopsies of 15 mm diameter were produced from a single donor. Two NativeSkin® models with 12/15 mm silicon rings were produced from the biopsies according to standard procedures in place, and cultured under cell culture conditions (37° C., 5% CO2, max. humidity) for 7 days with 2 mL of standard NativeSkin® medium renewed every day. Fourteen PSO-InflammaSkin® models with 12/15 mm silicon rings were produced by inducing in situ activation and Th17/Th1 polarization of skin resident T cells with a proprietary cocktail, and cultured under cell culture conditions (37° C., 5% CO2, max. humidity) for 7 days with 2 mL of PSO-InflammaSkin® culture medium renewed every day.
(§2) From Day 1 to Day 6, models were systemically treated with 1 μM Otezla or Short Chain Fatty Acids (SCFAs), or topically treated with positive control 0.05% Betamethasone
(§3) In these experiments, the SCFAs administered were 45 μg/mL of Ca-propionate and 1 mM mixture of salts (Ca-butyrate and Mg-butyrate).
At Day 7, supernatants were collected and stored at −80° C. and skin models of all conditions were carefully unmolded. Skin biopsies were re-punched to eliminate the area under the silicon ring, fixed in 10% buffered formalin and processed for paraffin wax embedding. […]

The next series deals with IL-17A. The series is described as follows: Multiplex (MSD V-PLEX) cytokine release, InflammaSkin: IL-17A. In kind it is cell-based, human. The following applies: Day 7 supernatant, 0.05% Betamethasone topical, vs untreated InflammaSkin. How it is done:
as §1, §2, §3
At Day 7, supernatants were collected and stored at −80° C. and skin models of all conditions were carefully unmolded. […]
Human pro-inflammatory cytokines released in the supernatant were quantified using the V-PLEX Human IL-17A Kit (MesoScale Discovery, reference: K151RFD-1) and V-PLEX Human TNFα Kit (MesoScale Discovery, reference: K151QWD-1). […]
(§4) Human pro-inflammatory cytokines released in the supernatant were quantified using the V-PLEX Human IL-17A Kit (MesoScale Discovery, reference: K151RFD-1) and V-PLEX Human custom Pro-inflammatory. […]
(§5) Samples were diluted four times for plate 2 and two times for plate 1. Samples and standards were assessed in duplicate. Plates were read on MesoScale Discovery Quickpleax SQ 120 plate reader and values expressed in pg/mL.
(§6) A statistical analysis was performed. […] First, the distribution's normality of the two compared group was assessed. […] If the two distributions were normal, the homogeneity of variances was assessed using a Fisher test on the variances. […]

The subject of the next series is IFN-γ. Description: Multiplex (MSD V-PLEX) cytokine release, InflammaSkin: IFN-γ. Type of series: cell-based, human. The following applies: Example 2; Day 7 supernatant; 1 μM Otezla or SCFA (45 μg/mL Ca-propionate + 1 mM Ca-/Mg-butyrate) systemic, 0.05% Betamethasone topical; vs untreated InflammaSkin. How it is done: (§7) A total of 16 biopsies of 15 mm diameter were produced from a single donor. Two NativeSkin® models with 12/15 mm silicon rings were produced from the biopsies according to standard procedures in place, and cultured under cell culture conditions (37° C., 5% CO2, max. humidity) for 7 days with 2 mL of standard NativeSkin® medium renewed every day. Fourteen PSO-InflammaSkin® models with 12/15 mm silicon rings were produced by inducing in situ activation and Th17/Th1 polarization of skin resident T cells with a proprietary cocktail, and cultured under cell culture conditions (37° C., 5% CO2, max. humidity) for 7 days with 2 mL of PSO-InflammaSkin® culture medium renewed every day. […]
as §4, §5, §6

The next series has as its system IL-22. Description: Multiplex (MSD V-PLEX) cytokine release, InflammaSkin: IL-22. Type of series: cell-based, human. As to conditions: Example 2; Day 7 supernatant; 1 μM Otezla or SCFA systemic, 0.05% Betamethasone topical; vs untreated InflammaSkin. The protocol:
as §7, §4, §5, §6

The subject of another series is IL-31. Description: Multiplex (MSD V-PLEX) cytokine release, InflammaSkin: IL-31. In kind it is cell-based, human. As to conditions: Example 2; Day 7 supernatant; 1 μM Otezla or SCFA systemic; vs untreated InflammaSkin. The protocol:
as §7, §4, §5, §6

A further series concerns MIP-3α. The series is described as follows: Multiplex (MSD V-PLEX) cytokine release, InflammaSkin: MIP-3α. Type of series: cell-based, human. The following applies: Example 2; 1 μM Otezla systemic; compared to untreated InflammaSkin. The protocol: as §7, §4, §5, §6
The subject of the next series is IL-21. The series is described as follows: Multiplex (MSD V-PLEX) cytokine release, InflammaSkin: IL-21. In kind it is cell-based, human. The following applies: Example 2; 1 μM Otezla systemic; compared to untreated InflammaSkin. How it is done: as §7, §4, §5, §6
For the next series, the system named is TNF-α. The series is described as follows: ELISA analysis of TNF-α, InflammaSkin. Type of series: cell-based, human. As to conditions: Example 2; Otezla-treated InflammaSkin; FIG. 20. A general note: In an ELISA, binding on a coated surface is turned into a signal by an enzyme label.
Series [1] can be described thus: Body weight in IMQ-induced psoriasis model mice. In kind it is in vivo, mouse. How it is done:
Body weight was determined daily in all mice over the whole period of each study. Oral treatment with either Apremilast (25 mg/kg BID) or SFA002 (fixed dose BID) started with the disease induction on day 0. Etanercept (10 mg/kg Q3D s.c.) served as a technical control. Healthy control and IMQ control group received no placebo treatment.

Series [2] is described as follows: Observations of animal well-being in IMQ-induced psoriasis model mice. Type of series: in vivo, mouse.

As for `CCOc1cc([C@@H](CS(C)(=O)=O)N2C(=O)c3cccc(NC(C)=O)c3C2=O)ccc1OC` [Otezla, Apremilast], in the series on K16, the “K16 expression in the epidermis” value was “decreased the expression of K16 in the epidermis”. Moreover, the “IL-17A levels decreased by” value with IL-17A (Example 1, 1 μM Otezla or SCFA (45 μg/mL Ca-propionate + 1 mM Ca-/Mg-butyrate) systemic) was “about 95%”. For the same compound, in the series with IL-17A (Example 2, 1 μM Otezla or SCFA systemic), the IL-17A secretion result is reported as “significantly reduced”. Also, in the series with IFN-γ, the IFN-γ secretion entry was “significantly reduced”. The IL-22 secretion entry with IL-22 is reported as “significantly reduced”. Further, the IL-31 secretion result in the series with IL-31 was “reduced IL-31 (FIG. 10 and FIG. 17), but it was not significantly different from untreated InflammaSkin® models”. Moreover, the “increase of secretion of MIP-3a” value in the series with MIP-3α is reported as “about 50%”. For the same compound, the “increase of secretion of IL-21” value in the series with IL-21 is listed as “about 50%”. The TNFα level (by ELISA) in the series on TNF-α is about 13 pg/mL. The body weight loss entry is reported as “no effect on body weight loss” in [1] (Example 4, Apremilast 25 mg/kg BID, SCFA fixed dose BID (120 + 2,146 mg/kg/day), oral); “no positive influence on body weight loss” in [1] (Example 7, Apremilast 2.5, 5, 7 mg/kg BID, SCFA (120 + 1,100 mg/kg/day), alone or in combination, vs vehicle-treated IMQ disease controls); “no positive influence on body weight loss” in series [1] (Example 9, Apremilast 25 mg/kg BID, SCFA fixed dose, alone or in combination, vs vehicle-treated IMQ disease controls); “no positive influence on body weight loss” in series [1] (Example 12, Apremilast 12 or 25 mg/kg BID, fixed dose SCFA, alone or in combination, vs vehicle-treated IMQ disease controls). Moreover, the “observations of animal well-being” value in series [2] (Example 4, SCFA fixed dose BID (120 + 2,146 mg/kg/day), Apremilast 50 mg/kg/day, oral, study duration) was “reduced activity, ruffled coat and were slightly hunched”; in series [2] (Example 7, SCFA (120 + 1,100 mg/kg/day), Apremilast 2.5, 5, 7 mg/kg BID, or combinations, study duration), “well tolerated”; in series [2] (Example 8 (written in present tense), SCFA, Apremilast 2.5, 5, 7 mg/kg BID, or combinations), “well tolerated”; in [2] (Example 9, SCFA fixed dose, Apremilast 25 mg/kg BID, or combination, study duration) it was “well tolerated”; in series [2] (Example 10 (written in present tense), SCFA, Apremilast 25 mg/kg BID, or combination), “well tolerated”; in series [2] (Example 12, SCFA fixed dose, Apremilast 12 or 25 mg/kg BID, or combinations, study duration) it was “well tolerated”.
